Some test systems named below: U251 CNS; OVCAR-3 ovarian; OVCAR-8 ovarian; SF-539 CNS; DLD-1 colon; NCI-H522 lung; CCRF-CEM leukemia; HCC-2998 colon; M14 melanoma; NCI-H226 lung; PC-3 prostate; SR leukemia.
Experiment in all cases: NCI tumour cell line growth inhibition, 48 h

Each structure is given as a SMILES string.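 Step 1: Grow cells in 96-well plates. Step 2: Expose to compound for 48 hours at 5 concentrations. Step 3: Interpolate endpoints linearly; if unreached, use highest concentration. GI50 is the concentration that inhibits growth by half. TGI denotes the concentration required for complete inhibition of growth.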 Where a SMILES comes first, the peptide text is derived from it. The star is where a group is joined. Cbz = O=C(OCc1ccccc1)*; Bn = c1ccc(C*)cc1 Some results are limits rather than exact numbers.

In the case of `CC(=O)OCC1OC(NC(=O)N(CCCl)N=O)C(OC(C)=O)C(OC(C)=O)C1OC(C)=O` (configuration not stated), the TGI with U251 CNS, in the assay on OVCAR-3 ovarian, in the assay with OVCAR-8 ovarian, in the assay on SF-539 CNS, with DLD-1 colon and with NCI-H522 lung was above 100 µM throughout. The TGI in the assay with CCRF-CEM leukemia and in the assay with HCC-2998 colon was above 100 µM in each case.

As for `NC(=O)c1ccc([N+](=O)[O-])cc1`, the TGI in the assay on M14 melanoma, in the assay on U251 CNS, with OVCAR-3 ovarian, in the assay on OVCAR-8 ovarian, in the assay with SF-539 CNS and with DLD-1 colon was above 100 µM in each case. In addition, the TGI in the assay with NCI-H226 lung, in the assay with NCI-H522 lung, in the assay on CCRF-CEM leukemia and in the assay on HCC-2998 colon was above 100 µM each time.

As to `C1CSCCSCSCCS1`, the TGI in the assay on M14 melanoma, in the assay with U251 CNS, with OVCAR-3 ovarian, in the assay on PC-3 prostate, in the assay on OVCAR-8 ovarian and with SF-539 CNS was above 100 µM throughout. In addition, the TGI in the assay with NCI-H226 lung, in the assay with NCI-H522 lung and in the assay with HCC-2998 colon was above 100 µM each time.

In the case of `O=C1c2cccc(O)c2C(=O)c2c(O)cccc21`, the TGI in the assay with M14 melanoma, in the assay with U251 CNS, in the assay on SR leukemia, in the assay with OVCAR-3 ovarian, with OVCAR-8 ovarian and with SF-539 CNS was above 100 µM throughout. For the same molecule, the TGI in the assay with DLD-1 colon, in the assay with NCI-H226 lung, in the assay with NCI-H522 lung, with CCRF-CEM leukemia and in the assay with HCC-2998 colon was above 100 µM throughout.

As to `COc1ccc(-c2oc3cc(OC(C)=O)cc(OC(C)=O)c3c(=O)c2OC)cc1`, the TGI was determined as 30.6 µM in the assay on M14 melanoma; 30.6 µM in the assay on U251 CNS; 51.5 µM in the assay with SR leukemia; 38.6 µM in the assay on OVCAR-3 ovarian; 59 µM with PC-3 prostate; 53.6 µM in the assay on OVCAR-8 ovarian. In addition, the TGI with NCI-H522 lung is 5.28 µM; in the assay with CCRF-CEM leukemia, 49.6 µM; with HCC-2998 colon, 32.3 µM.

Consider `C=CCOCCC(CC=C)C(=O)CC(=O)OC` (configuration not stated), for which the TGI with M14 melanoma, in the assay on U251 CNS, in the assay on SR leukemia, in the assay with OVCAR-3 ovarian, in the assay with OVCAR-8 ovarian and with SF-539 CNS was above 100 µM each time. For the same molecule, the TGI in the assay on DLD-1 colon, in the assay on NCI-H226 lung, in the assay with NCI-H522 lung, in the assay with CCRF-CEM leukemia and in the assay on HCC-2998 colon was above 100 µM in each case.

Take `NC(CCP(=O)(O)O)C(=O)O` (configuration not stated): the TGI in the assay with M14 melanoma, in the assay with U251 CNS, in the assay with SR leukemia, with OVCAR-3 ovarian, in the assay on PC-3 prostate and with OVCAR-8 ovarian was above 100 µM in each case. For the same molecule, the TGI with NCI-H226 lung, in the assay on NCI-H522 lung and with CCRF-CEM leukemia was above 100 µM throughout.

`CC1C[C@]2(C[C@@H](C)C(=O)O2)OC2CC3(C)C4CCC5C(C)(C)OC(=O)CC[C@@]56C[C@@]46CC[C@]3(C)C12` (some centres not stated): the TGI in the assay on M14 melanoma, in the assay with U251 CNS, in the assay on SR leukemia, in the assay on OVCAR-8 ovarian, in the assay with SF-539 CNS and with DLD-1 colon was above 100 µM throughout. Moreover, the TGI in the assay on NCI-H226 lung, with CCRF-CEM leukemia and in the assay with HCC-2998 colon was above 100 µM each time.

On to `O=C(Nc1ccc(Cl)cc1)c1cc([N+](=O)[O-])ccc1O`, for which the TGI was 18.9 µM with M14 melanoma; above 70.7 µM with U251 CNS; 31.6 µM with SR leukemia; 7.56 µM in the assay on OVCAR-3 ovarian; 30.7 µM in the assay with OVCAR-8 ovarian; above 34 µM in the assay with SF-539 CNS. In addition, the TGI in the assay on DLD-1 colon was above 100 µM; with NCI-H226 lung, 12.6 µM; in the assay with NCI-H522 lung, 5.85 µM; in the assay on CCRF-CEM leukemia it was 11 µM; in the assay with HCC-2998 colon, 8.98 µM.

On to `COC(=O)C(Cc1ccc(O)cc1)NC(=O)C(COCc1ccccc1)NC(=O)OCc1ccccc1` (configuration not stated) (Cbz-Ser(Bn)-Tyr-OMe; configuration not given here), for which the TGI with M14 melanoma is 33.5 µM; in the assay on U251 CNS it was 33.5 µM; with SR leukemia it was above 100 µM; with OVCAR-3 ovarian, 31.8 µM; in the assay on PC-3 prostate, 33.3 µM; with OVCAR-8 ovarian, 31.8 µM. For the same molecule, the TGI with SF-539 CNS is 34.2 µM; with NCI-H226 lung, 36.9 µM; in the assay with NCI-H522 lung, 37.3 µM; in the assay on CCRF-CEM leukemia, above 100 µM; with HCC-2998 colon it was 17.3 µM.

Take `c1ccc(-c2n(Cc3ccc4ccccc4c3)c3ccccc3[n+]2Cc2ccc3ccccc3c2)cc1`: the GI50 was 0.343 µM in the assay with SR leukemia; 0.259 µM with OVCAR-3 ovarian; 0.27 µM with PC-3 prostate; 0.336 µM in the assay on SF-539 CNS; 0.352 µM in the assay on NCI-H226 lung. The TGI was determined as 1.64 µM with SR leukemia; 1.03 µM in the assay with OVCAR-3 ovarian; 1.13 µM in the assay on PC-3 prostate; 1.29 µM in the assay with SF-539 CNS; 2.01 µM with NCI-H226 lung.

Regarding `N=C(N)c1ccc(-c2ccc(-c3ccc4ccccc4c3)s2)s1`, the GI50 in the assay on M14 melanoma is 2.45 µM; with OVCAR-3 ovarian, 1.89 µM; with PC-3 prostate, 2.19 µM; with SF-539 CNS, 1.97 µM; with NCI-H226 lung, 33.6 µM; with NCI-H522 lung, 1.96 µM. Besides, in the assay on HCC-2998 colon, the GI50 is 2.02 µM. The TGI is 5.72 µM in the assay with M14 melanoma; 3.7 µM in the assay on OVCAR-3 ovarian; 4.87 µM in the assay with PC-3 prostate; 4.57 µM with SF-539 CNS; 79.2 µM with NCI-H226 lung; 4.77 µM in the assay with NCI-H522 lung. In the assay with HCC-2998 colon, this molecule had a TGI of 4.48 µM.

Values taken from PubChem BioAssay (NCI).
